Laboratory results from ChEMBL document CHEMBL1131730, “Isolation and characterization of an active-site peptide from a sterol methyl transferase with a mechanism-based inhibitor” (Bioorg Med Chem Lett, 1999).

What was measured:
[1] = (§1) Rate of inactivation of sterol methyl transferase from Saccharomyces cerevisiae using mechanism based inhibitor
[2] = test system: Saccharomyces cerevisiae; test: as §1; type: organism-based; conditions: in vivo

SMILES: CC(C)C(C)CC[C@@H](C)C1CCC2C3=C(CCC21C)C1(C)CCC(O)CC1CC3 (some centres not stated)
- Ki [1]: 1.1 µM
- Ki inact [2]: 1.52 min⁻¹
